Legend:
promoter of JWA gene = assay: Luciferase reporter gene under control of JWA gene promoter in HBE cells (high-throughput screening); format: cell-based, human; conditions: for fluorescence intensity of reporter gene: 48 h
Text: High-throughput screening (HTS) was used to identify the human bronchial epithelial (HBE) cells stably transfected with a DNA construct with a luciferase gene under control of a 2,000 bp long promoter of JWA gene.
FIG. 1 is a sequence containing the 2000 bp promoter sequence of JWA gene that was used for a luciferase reporter gene plasmid construction.

HER2 protein = assay: Laser confocal immunofluorescence in HER2-positive breast cancer cells, HER2 level and localization; format: cell-based, human; conditions: immunofluorescence, 0, 1, 10 μM, 24 h
Experimental: The cells were inoculated into a 35 mm glass bottom dish, treated with different concentrations (0, 1, and 10 μM) of JAC1 for 24 h, fixed with methanol for 15 min, washed three times with PBST, blocked with normal sheep serum for 1 h, and incubated in primary antibody overnight at 4° C. The cells were then washed three times with PBST, incubated in fluorescent secondary antibody and 4′,6-diamidino-2-phenylindole (DAPI), and photographed using a laser confocal scanning microscopy.

BT474 cells = conditions: BT474, Transwell, 0, 1, and 10 μL of JAC1, 12 h
Experimental: (§1) BT474 and SKBR3 cells in the logarithmic growth phase were transferred into six-well plates at the cell density of 40%-50%. After the cells adhered to the walls of the plates, the cells were respectively incubated in […] of JAC1. Spreading gel in Transwell chamber: the day before the assay, a 24-well plate and a plurality of Transwell chambers were prepared, and 1 mg/mL fibronectin (FN) mother liquor was diluted 10 times to a final concentration of 100 μg/mL. The bottom of each Transwell chamber was coated with 50 μL of FN, placed on a clean bench to air-dry for 2 h, and cultured in an incubator overnight.
(§2) On the day of the assay, the cultured cells were digested with 0.25% trypsin and resuspended in a serum-free medium in which the number of the cells were counted and the cell density was adjusted to 3×10^5 cells/mL. 100 μL of serum-free medium containing the cells was transferred onto the upper layer of each Transwell chamber, and 600 μL of mixture containing 10% FBS and 100 ng/mL EGF medium was added to the lower layer of each Transwell chamber. After incubation in an incubator for 12 h, the Transwell chambers were taken out, fixed with 95% methanol for 20 min, washed three times with phosphate-buffered saline (PBS), stained with crystal violet dye for 30 min, and washed three times with PBS. […]

SKBR3 cells = conditions: SKBR3, Transwell, 0, 1, and 10 μL of JAC1, 12 h
Experimental: as §1, §2

JWA protein = assay: Western blot of subcutaneous BT474 tumors, JWA; format: in vivo, BALB/c nude mice; conditions: treatment group
Experimental: BT474 human breast cancer cells in the logarithmic growth phase were suspended in ice-cold suspension buffer for a final concentration of 5×10^6/100 μL, followed by subcutaneous transplantations of the suspended cells into BALB/c nude mice. When the tumor grown up to 75-125 mm^3, the BALB/c nude mice were randomly divided into five equal groups, including a blank control group (Mock), a solvent control group (Vehicle), a 50 mg/kg JAC1 treatment group, a 100 mg/kg JAC1 treatment group, and a positive control group treated with Pacilitaxel and Trastuzumab (TH). Dose and administration: JAC1 was injected intraperitoneally into mice once daily; the dosage of Trastuzumab was 10 mg/kg injected intraperitoneally twice a week; the dosage of Pacilitaxel was 20 mg/kg injected intraperitoneally once a week. From the day of administration, mouse body weights and tumor diameters were measured every other 2 days, and the tumor volume was calculated using an equation. When the mice reached a humane endpoint at which the tumor volume increased to 2500-3000 mm^3, the research based on the mouse models was terminated and the laboratory mice were anesthetized and euthanized in a timely manner to alleviate animal suffering and perform the statistical analysis. […]

COc1cccc2sc(Nc3nc4c(F)cccc4s3)nc12 [JAC1, 4-fluoro-N-(4-methoxybenzene (d)thiazole-2-group) benzene (d) thiazole-2-amine]
fluorescence intensity of reporter gene (promoter of JWA gene; 0.05 μg/mL): 13560.00 | fluorescence intensity of reporter gene (promoter of JWA gene; 0.10 μg/mL): 16200.00 | fluorescence intensity of reporter gene (promoter of JWA gene; 0.21 μg/mL): 21975.00 | fluorescence intensity of reporter gene (promoter of JWA gene; 0.41 μg/mL): 28186.67 | fluorescence intensity of reporter gene (promoter of JWA gene; 0.83 μg/mL): 38760.00 | fluorescence intensity of reporter gene (promoter of JWA gene; 1.65 μg/mL): 54293.33 | fluorescence intensity of reporter gene (promoter of JWA gene; 3.30 μg/mL): 68080.00 | activation of JWA gene (promoter of JWA gene; result in words): particularly significant effect on activation of JWA gene | HER2 protein level (HER2 protein): HER2 protein level reduced | cellular localization of HER2 protein (HER2 protein): no effect on the localization of HER2 protein in the cell membrane | migratory ability (BT474 cells): effectively inhibit the migratory ability | migratory ability (SKBR3 cells): effectively inhibit the migratory ability | JWA protein level in tumor (JWA protein): significantly increased

Source: US11427575B2, “Antitumor compound for activating JWA gene and degrading HER2, preparation method thereof, and application thereof” (SIMCERE PHARMACEUTICAL CO., LTD., priority 2019, dated 2022)
